According to patent US8232406B2, “c-MET protein kinase inhibitors” (Vertex Pharmaceuticals Incorporated, priority 2006, dated 2012):

Target: c-MET (Homo sapiens, UniProt P08581)
Assay: Ki determination for the inhibition of c-MET (standard radiometric 33P-ATP kinase assay, polyE4Y substrate)
Format: biochemical
Details: 1.0 nM c-Met, 35 μM ATP, 0.5 mg/mL polyE4Y, 20 min; competitive tight-binding fit
Protocol: Ki Determination for the Inhibition of c-MET
Compounds of the invention were screened for their ability to inhibit c-MET kinase activity using a standard radiometric assay. Briefly, in this kinase assay the transfer of the terminal ^33P-phosphate in ^33P-ATP to substrate polyE4Y is interrogated. The assay was carried out in 96-well plates to a final volume of 100 μL per well containing 1.0 nM c-Met, 100 mM HEPES (pH 7.5), 10 mM MgCl2, 25 mM NaCl, 0.01% BSA, 1 mM DTT, 0.5 mg/mL polyE4Y, and 35 μM ATP. Accordingly, compounds of the invention were dissolved in DMSO to make 10 mM initial stock solutions. Serial dilutions in DMSO were then made to obtain the final solutions for the assay. A 1.5 μL aliquot of DMSO or inhibitor in DMSO was added to each well. The reaction was initiated by the addition of ^33P-ATP and polyE4Y (obtained from Sigma). After 20 min, the reaction was quenched with 50 μL of 30% trichloroacetic acid (TCA) containing 4 mM ATP. The reaction mixture was transferred to the 0.66 mm GF filter plates (Corning) and washed three times with 5% TCA. Following the addition of 50 μL of Ultimate Gold™ high efficiency scintillant (Packard Bioscience), the samples were counted in a Packard TopCount NXT Microplate Scintillation and Luminescence Counter (Packard BioScience). The Ki values were calculated using Microsoft Excel Solver macros to fit the data to the kinetic model for competitive tight-binding inhibition.

c-MET, sequence (P08581 25-1390): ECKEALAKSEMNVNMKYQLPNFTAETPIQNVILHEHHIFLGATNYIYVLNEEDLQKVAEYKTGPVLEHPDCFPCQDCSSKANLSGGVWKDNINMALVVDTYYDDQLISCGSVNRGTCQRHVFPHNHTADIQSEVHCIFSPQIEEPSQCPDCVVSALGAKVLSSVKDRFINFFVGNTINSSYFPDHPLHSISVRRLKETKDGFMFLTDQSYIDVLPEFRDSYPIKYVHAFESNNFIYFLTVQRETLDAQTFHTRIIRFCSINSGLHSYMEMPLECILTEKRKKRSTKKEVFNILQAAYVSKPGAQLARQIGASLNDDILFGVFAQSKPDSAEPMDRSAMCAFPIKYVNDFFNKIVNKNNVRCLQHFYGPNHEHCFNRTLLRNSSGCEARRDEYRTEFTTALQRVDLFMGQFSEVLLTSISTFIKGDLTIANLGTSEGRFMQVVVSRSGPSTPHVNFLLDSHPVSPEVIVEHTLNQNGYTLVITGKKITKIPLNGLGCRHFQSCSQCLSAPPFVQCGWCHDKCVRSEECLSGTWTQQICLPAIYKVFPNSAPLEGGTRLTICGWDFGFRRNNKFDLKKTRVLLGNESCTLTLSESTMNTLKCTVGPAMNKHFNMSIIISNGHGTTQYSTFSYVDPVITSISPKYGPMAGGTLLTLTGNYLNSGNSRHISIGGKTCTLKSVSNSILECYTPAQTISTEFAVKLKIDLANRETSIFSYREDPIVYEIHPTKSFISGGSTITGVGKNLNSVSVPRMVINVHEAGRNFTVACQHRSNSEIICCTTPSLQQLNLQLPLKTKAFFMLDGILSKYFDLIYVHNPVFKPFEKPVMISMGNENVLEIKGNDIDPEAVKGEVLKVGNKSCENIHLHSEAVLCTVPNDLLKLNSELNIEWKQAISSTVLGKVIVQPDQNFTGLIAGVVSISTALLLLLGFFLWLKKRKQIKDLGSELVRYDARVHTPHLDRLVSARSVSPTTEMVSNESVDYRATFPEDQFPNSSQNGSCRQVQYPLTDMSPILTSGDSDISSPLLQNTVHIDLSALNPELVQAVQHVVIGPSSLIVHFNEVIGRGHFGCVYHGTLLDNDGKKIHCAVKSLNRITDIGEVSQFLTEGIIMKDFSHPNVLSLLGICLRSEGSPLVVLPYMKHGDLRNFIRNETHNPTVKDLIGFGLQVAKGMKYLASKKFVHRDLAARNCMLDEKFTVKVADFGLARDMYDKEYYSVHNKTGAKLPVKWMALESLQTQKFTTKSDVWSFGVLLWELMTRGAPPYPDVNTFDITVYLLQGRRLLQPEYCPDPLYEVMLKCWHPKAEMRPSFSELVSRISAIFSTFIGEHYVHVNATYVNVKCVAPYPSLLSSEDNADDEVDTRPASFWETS

| Structure (SMILES) | Ki [nM] |
| --- | --- |
| Cn1cnc(-c2cnc(N)c(-c3nnnn3-c3cccc(F)c3F)c2)c1 [I-A-495] | 100 to 1000 |
| CN(C)Cc1ccc(-c2cnc(N)c(-c3nc4cnccc4n3-c3cccc(F)c3F)c2)cc1 [I-D-4] | ≤ 100 |
| Nc1ncc(-c2ccc(CN3CCCC3)s2)cc1-c1nnnn1-c1cccc(F)c1F [I-A-186] | ≤ 100 |
| Nc1ncc(-c2ccc(N3CCNCC3)cc2)cc1-c1nc2cnccc2n1-c1cccc(F)c1F [I-D-23] | ≤ 100 |
| CC(=O)Nc1ccc(-c2cnc(N)c(-c3nnnn3-c3c(F)cccc3Cl)c2)cc1 [I-A-639] | 100 to 1000 |
| CC(=O)N1CCCC1c1ccc(-c2cnc(N)c(-c3nnnn3-c3cccc(F)c3F)c2)cc1 (stereo not shown) [I-A-335] | ≤ 100 |
| Cc1nnc(-c2cnc(N)c(-c3nnnn3-c3cccc(F)c3F)c2)s1 [I-A-494] | 100 to 1000 |
| Nc1ncc(-c2cnn(CC(=O)N3CCCC3)c2)cc1-c1nnnn1-c1cccc(F)c1F [I-A-364] | 100 to 1000 |
| COc1c(F)cccc1-n1nnnc1-c1cc(-c2ccc(CN3CCCC3)cc2)cnc1N [I-A-604] | 100 to 1000 |
| Nc1ncc(-c2cnc3ccccc3c2)nc1-c1nncn1-c1cccc(F)c1F [I-A-33] | 100 to 1000 |
| Nc1ncc(-c2cnn(C3CCNCC3)c2)cc1-c1nc2cc(F)ccc2n1-c1cccc(Cl)c1F [I-D-19] | ≤ 100 |
| CC(=O)Nc1ccc(-c2cnc(N)c(-c3nncn3-c3cccc(Cl)c3Cl)c2)cc1 [I-A-76] | 100 to 1000 |
| Nc1ncc(-c2cc3c(s2)CNCC3)cc1-c1nnnn1-c1cccc(F)c1F [I-A-492, 3-(1-(2,3-Difluorophenyl)-1H-tetrazol-5-yl)-5-(4,5,6,7-tetrahydrothieno[2,3-c]pyridin-2-yl)pyridin-2-amine] | ≤ 100 |
| CC(C)(C)C(=O)Nc1ccc(-c2cnc(N)c(-c3nnnn3-c3cccc(F)c3F)c2)cc1 [I-A-194] | 100 to 1000 |
| COC(=O)c1cccc(-c2cnc(N)c(-c3nnnn3-c3cccc(F)c3F)c2)c1 [I-A-317] | 100 to 1000 |
| Nc1ncc(-c2cccnc2)cc1-c1nnnn1-c1cc(Cl)ccc1F [I-A-554] | 100 to 1000 |
| Nc1ncc(-c2ccc(CN3CCOCC3)cc2)nc1-c1nnc(O)n1-c1cccc(F)c1F [I-A-16] | 100 to 1000 |
| COc1ccc(-c2cnc(N)c(-c3nnnn3-c3cccc(F)c3F)c2)cc1F [I-A-290] | ≤ 100 |
| CC1CCCN1Cc1ccc(-c2cnc(N)c(-c3nnnn3-c3cccc(F)c3F)c2)cc1 (stereo not shown) [I-A-209] | ≤ 100 |
| Nc1ncc(-c2cccc(NC(=O)Nc3cccnc3)c2)cc1-c1nnnn1-c1cccc(F)c1F [I-A-272] | ≤ 100 |
| CS(=O)(=O)c1ccc(-c2cnc(N)c(-c3nncn3-c3cccc(F)c3F)n2)cc1 [I-A-32] | ≤ 100 |
| Nc1ncc(-c2cnn(C(c3ccccc3)(c3ccccc3)c3ccccc3)c2)cc1-c1nnnn1-c1cccc(F)c1F [I-A-365] | 100 to 1000 |
| CCCN1CCC(n2cc(-c3cnc(N)c(-c4nnnn4-c4cccc(F)c4F)c3)nn2)CC1 [I-A-482] | ≤ 100 |
| Nc1ncc(-c2cccnc2)cc1-c1nccn1-c1cccc(Cl)c1Cl [I-A-65] | ≤ 100 |
| CC(=O)N1CCC[C@H]1C(=O)N1CC=C(c2cnc(N)c(-c3nnnn3-c3cccc(F)c3F)c2)CC1 [I-A-641] | 100 to 1000 |
| CN(C)Cc1ccc(-c2cnc(N)c(-c3nnnn3-c3cccc(F)c3F)n2)cc1 [I-A-48] | ≤ 100 |

| Structure (SMILES) | Ki [nM] |
| --- | --- |
| Nc1ncc(-c2nc3c(s2)CNCC3)cc1-c1nnnn1-c1cccc(Cl)c1F [I-A-533] | 100 to 1000 |
| Nc1ncc(-c2cnn(C3CCNCC3)c2)cc1-c1nccn1-c1cccc(Cl)c1Cl [I-A-394] | ≤ 100 |
| COCCOc1ccc(-c2cnc(N)c(-c3nnnn3-c3cccc(F)c3F)c2)cc1OCCOC [I-A-354] | ≤ 100 |
| CC(=O)Nc1ccc(-c2cnc(N)c(-c3nncn3-c3cccc(F)c3F)n2)cc1 [I-A-11] | ≤ 100 |
| Nc1ncc(-c2cccnc2)nc1-c1nncn1-c1cc(Cl)ccc1F [I-A-34] | 100 to 1000 |
| Cc1nc(-c2cc(-c3cccnc3)cnc2N)c(-c2cccc(Cl)c2Cl)o1 [I-C-6] | ≤ 100 |
| Nc1ncc(-c2ccc(C3CCNCC3)cc2)cc1-n1nnnc1-c1cccc(F)c1F [I-E-3] | 100 to 1000 |
| CN(C)Cc1ccc(-c2cnc(N)c(-c3nn(C4CCCCC4)cc3-c3cccc(Cl)c3Cl)c2)cc1 [I-B-11] | 100 to 1000 |
| Nc1nc2cc(-c3cnc(N)c(-c4nnnn4-c4cccc(F)c4F)c3)c(F)cc2[nH]1 [I-A-141] | ≤ 100 |
| CC(=O)N1CCC(n2cc(-c3cnc(N)c(-c4nnnn4-c4cccc(F)c4F)c3)cn2)CC1 [I-A-455] | ≤ 100 |
| Nc1ncc(-c2ccccc2O)cc1-c1nncn1-c1cccc(Cl)c1Cl [I-A-75] | 100 to 1000 |
| Nc1ncc(-c2ccc(CN3CCCC3)cc2)cc1-c1nnnn1-c1c(F)ccc(F)c1Cl [I-A-620] | ≤ 100 |
| Nc1ncc(-c2cc(F)cc(F)c2)cc1-c1nnnn1-c1cccc(F)c1F [I-A-288] | 100 to 1000 |
| Nc1ncc(-c2cnn(C3CCNCC3)c2)cc1-c1nnnn1-c1cc(F)ccc1Cl [I-A-637] | 100 to 1000 |
| CN(C)C(=O)N1CCC(n2cc(-c3cnc(N)c(-c4nnnn4-c4cccc(Cl)c4F)c3)cn2)CC1 [I-A-445] | ≤ 100 |
| CC(=O)Nc1ccc(-c2cnc(N)c(-c3nnnn3-c3c(F)ccc(F)c3Cl)c2)cc1 [I-A-614] | 100 to 1000 |
| COc1ccc(-c2cnc(N)c(-c3nnnn3-c3cccc(F)c3F)c2)cc1 [I-A-222] | ≤ 100 |
| Nc1ncc(C2=CCN(C(=O)C[C@@H]3CCCN3)CC2)cc1-c1nnnn1-c1cccc(F)c1F [I-A-505] | ≤ 100 |
| Nc1ncc(-c2cnn([C@@H]3CCNC3)c2)cc1-c1nnnn1-c1cccc(Cl)c1Cl [I-A-408] | ≤ 100 |
| CCNC(=O)Nc1nc2cc(F)c(-c3cnc(N)c(-c4nncn4-c4cccc(F)c4F)n3)cc2[nH]1 [I-A-57] | ≤ 100 |
| CS(=O)(=O)Nc1ccc(-c2cnc(N)c(-c3nnnn3-c3cccc(F)c3F)c2)cc1 [I-A-353] | 100 to 1000 |
| Nc1ncc(-c2ccc3c(c2)CCNC3)cc1-c1nnnn1-c1cccc(F)c1F [I-A-509] | 100 to 1000 |
| Nc1ncc(-c2cnn(C3CCCNCC3)c2)cc1-c1nnnn1-c1cccc(F)c1F (stereo not shown) [I-A-428] | ≤ 100 |
| Nc1ncc(-c2cccc(Cl)c2)cc1-c1nnnn1-c1cccc(F)c1F [I-A-225] | 100 to 1000 |
| Nc1ncc(C2=CCC(N)CC2)cc1-c1nnnn1-c1cccc(F)c1F (stereo not shown) [I-A-158] | ≤ 100 |
| Nc1ncc(-c2cnc3[nH]ccc3c2)cc1-c1nnnn1-c1cccc(Cl)c1Cl [I-A-92] | ≤ 100 |

| Structure (SMILES) | Ki [nM] |
| --- | --- |
| Nc1ncc(C2=CCN(C(=O)C3CC3)CC2)cc1-c1nnnn1-c1cccc(F)c1F [I-A-523] | ≤ 100 |
| Nc1ncc(-c2ccc(CN3CCCC3)cc2)cc1-c1nnnn1-c1cc(F)cc(F)c1Cl [I-A-601] | ≤ 100 |
| CC(=O)Nc1ccc(-c2cnc(N)c(-c3nnnn3-c3c(Cl)cccc3Cl)c2)cc1 [I-A-621] | 100 to 1000 |
| CN1CCC[C@H]1C(=O)N1CC=C(c2cnc(N)c(-c3nnnn3-c3cccc(F)c3F)c2)CC1 [I-A-503] | ≤ 100 |
| Nc1ncc(-c2cnn(C3CNC3)c2)cc1-c1nnnn1-c1cccc(F)c1F [I-A-426] | ≤ 100 |
| Nc1ncc(-c2cccnc2)nc1-c1nncn1-c1cccc(F)c1F [I-A-2] | 100 to 1000 |
| CN(CCC#N)Cc1ccc(-c2cnc(N)c(-c3nnnn3-c3cccc(F)c3F)c2)cc1 [I-A-148] | ≤ 100 |
| Nc1ncc(-c2ccc(N3CCCC3)nc2)nc1-c1nncn1-c1cccc(F)c1F [I-A-4] | 100 to 1000 |
| CC(=O)c1ccc(-c2cnc(N)c(-c3nnnn3-c3cccc(Cl)c3Cl)c2)cc1 [I-A-88] | 100 to 1000 |
| Nc1ncc(-c2ccc(CN3CCCC3)cc2)cc1-c1nnnn1-c1cccc(Cl)c1Cl [I-A-94] | ≤ 100 |
| Nc1ncc(-c2cnn(CC(=O)O)c2)cc1-c1nnnn1-c1cccc(F)c1F [I-A-350] | 100 to 1000 |
| Nc1ncc(-c2cccnc2)cc1-c1nnnn1-c1cccc(Cl)c1F [I-A-557] | 100 to 1000 |
| Nc1ncc(-c2ccco2)cc1-c1nnnn1-c1cccc(F)c1F [I-A-488] | 100 to 1000 |
| Nc1ncc(-c2cnn([C@H]3CCNC3)c2)cc1-c1nnnn1-c1cccc(F)c1F [I-A-412] | ≤ 100 |
| Nc1ncc(-c2cnn([C@H]3CCCNC3)c2)nc1-c1nnnn1-c1cccc(Cl)c1F [I-A-658] | ≤ 100 |
| Nc1ccc(-c2cnc(N)c(-c3nncn3-c3cccc(F)c3F)n2)cc1 [I-A-10] | ≤ 100 |
| CC(=O)Nc1cccc(-c2cnc(N)c(-c3nnnn3-c3cccc(Cl)c3F)c2)c1 [I-A-344] | ≤ 100 |
| CCCS(=O)(=O)N1CCC(n2cc(-c3cnc(N)c(-c4nnnn4-c4cccc(Cl)c4F)c3)cn2)CC1 [I-A-446] | ≤ 100 |
| Nc1ncc(-c2cnn([C@@H]3CCOC3)c2)cc1-c1nnnn1-c1cccc(F)c1F [I-A-419] | ≤ 100 |
| Nc1ncc(-c2ccccc2)cc1-c1nnnn1-c1cccc(F)c1F [I-A-233] | ≤ 100 |
| Nc1ncc(-c2ccc(CN3CCCC(CO)C3)cc2)cc1-c1nnnn1-c1cccc(Cl)c1Cl (stereo not shown) [I-A-99] | ≤ 100 |
| Nc1ncc(-c2cnn([C@H]3CCOC3)c2)cc1-c1nnnn1-c1cccc(F)c1F [I-A-425] | ≤ 100 |
| Nc1ncc(-c2cnn(C3CCNCC3)c2)cc1-c1nnnn1-c1cccc(F)c1Cl [I-A-385] | ≤ 100 |
| CC(C)(C#N)c1ccc(-c2cnc(N)c(-c3nnnn3-c3cccc(F)c3F)c2)cc1 [I-A-266] | ≤ 100 |
